From patent US4142046A, “Intermediates for the preparation of 7-acyl-3-(substituted triazolylthiomethyl)cephalosporins” (SmithKline Corporation, priority 1976, dated 1979) come the findings set out here.

In brackets after ≈: the same amount, converted by molar mass.

The subject of one experiment is E. coli HH 33779. Put plainly: MIC in vitro. The note with it: Escherichia coli, HH33779. It is filed as cell-based. The protocol:
(§1) The compounds of Formula I have antibacterial activity against both Gram-positive and Gram-negative organisms. Minimum inhibitory concentrations (MIC's) ranged from 0.2 to >200 μg./ml. in in vitro testing. […] Compound numbers corresponding to structures are given in the experimental section.

In the next experiment the test system is Entero. cloacae HH 31254. Put plainly: MIC in vitro. The note with it: Enterobacter cloacae, HH31254, read-out: MIC in vitro. It is filed as cell-based. The protocol: as §1
A further experiment deals with Proteus Morgani 179. Put plainly: MIC in vitro. It is filed as cell-based. The protocol:
as §1

Another experiment concerns Pseudo. sp. HH 63. Description: MIC in vitro. In kind it is cell-based. The protocol: as §1
Another experiment relates to S. aureus SK 23390. Put plainly: MIC in vitro. In kind it is cell-based. The note with it: for MIC: Staphylococcus aureus, SK23390, S. aureus SK 23390, read-out: MIC in vitro. The protocol: as §1
The next experiment deals with S. villaluz. Put plainly: MIC in vitro. It is filed as cell-based. The note with it: read-out: MIC in vitro. The protocol: as §1
A further experiment deals with Salmonella ATCC 12176. Description: MIC in vitro. The note with it: ATCC12176. In kind it is cell-based. The protocol:
as §1

Another experiment relates to Serra. marc. ATCC 13880. Description: MIC in vitro. It is filed as cell-based. The protocol:
as §1

The next experiment concerns Shigella HH 117. Put plainly: MIC in vitro. It is filed as cell-based. The note with it: Shigella, HH117, Shigella HH 117. The protocol: as §1
The subject of the next experiment is Strep. faecalis HH 34358. Description: MIC in vitro. It is filed as cell-based. The conditions noted are these: for MIC: Enterococcus faecalis, HH34358, Strep. faecalis HH 34358. The protocol:
as §1

The next experiment has as its system E. coli 12140. Description: In vivo mouse protection (ED50).
In a further experiment the test system is E. coli SK 12140. Description: MIC in vitro. The conditions noted are these: Escherichia coli, SK12140; E. coli SK 12140; read-out: MIC in vitro. It is filed as cell-based. The protocol: as §1
The subject of experiment [1] is Entero. aerog. ATCC 13048. Put plainly: MIC in vitro. In kind it is cell-based. The protocol:
as §1

The test system of the next experiment is Kleb. pneumo. SK 1200. Put plainly: MIC in vitro. In kind it is cell-based. The conditions noted are these: Kleb. pneumo. SK 1200; read-out: MIC in vitro. The protocol:
as §1

The next experiment deals with Kleb. pneumo. SK 4200. Put plainly: MIC in vitro. In kind it is cell-based. The note with it: Kleb. pneumo. SK 4200; read-out: MIC in vitro. The protocol: as §1
A further experiment relates to S. aureus HH 127. Description: MIC in vitro. It is filed as cell-based. The note with it: Staphylococcus aureus, HH127; S. aureus HH 127; read-out: MIC in vitro. The protocol:
as §1

The subject of another experiment is Kleb. pneumo. 4200. Put plainly: In vivo mouse protection (ED50). The note with it: for ED50: Mus musculus.
Setting [2] is: Escherichia coli, 12140, po, E. coli 12140, p.o.
The mark [3] stands for this setting: Escherichia coli, 12140, sc, E. coli 12140, s.c.

The MIC is the least concentration at which growth counts as inhibited. As a reminder, the ED50 is the midpoint of the dose-response relation. `CCOC(=O)c1nn[nH]c1SCC1=C(C(=O)O)N2C(=O)C(NC(=O)[C@H](N)c3ccc(O)cc3)[C@H]2SC1` (stereo partly drawn) [I, 7-(D-α-Amino-4-hydroxyphenylacetamido)-3-(4-carbethoxy-1,2,3-triazol-5-ylthiomethyl)-3-cephem-4-carboxylic acid]: the minimal inhibitory concentration (MIC) against E. coli HH 33779 was 25 µg/mL (≈ 46.8 µM); with Entero. cloacae HH 31254, 12.5 µg/mL (≈ 23.4 µM); with Proteus Morgani 179, above 200 µg/mL; with Pseudo. sp. HH 63, above 200 µg/mL; in the experiment with S. aureus SK 23390 it was 25 µg/mL (≈ 46.8 µM); in the experiment on S. villaluz, 200 µg/mL (≈ 374 µM). Also, the minimal inhibitory concentration (MIC) with Salmonella ATCC 12176 is 12.5 µg/mL (≈ 23.4 µM); in the experiment with Serra. marc. ATCC 13880 it was above 200 µg/mL; with Shigella HH 117, 12.5 µg/mL (≈ 23.4 µM); in the experiment with Strep. faecalis HH 34358 it was 200 µg/mL (≈ 374 µM). In addition, the MIC in vitro against S. aureus SK 23390 (S. aureus SK 23390) was determined as 13 µg/mL (≈ 24.3 µM); with Strep. faecalis HH 34358 (Strep. faecalis HH 34358), 100 µg/mL (≈ 187 µM). Besides, the median effective dose (ED50) is above 200 mg/kg in the experiment on E. coli 12140 (setting [2]) and 100 mg/kg in the experiment on E. coli 12140 (setting [3]).
`CCOC(=O)c1nn[nH]c1SCC1=C(C(=O)O)N2C(=O)C(NC(=O)[C@H](N)c3ccccc3)[C@H]2SC1` (stereo partly drawn) [II, 7-(D-α-Aminophenylacetamido)-3-(4-carbethoxy-1,2,3-triazol-5-ylthiomethyl)-3-cephem-4-carboxylic acid]: the minimal inhibitory concentration (MIC) with E. coli HH 33779 is 50 µg/mL (≈ 96.4 µM); in the experiment on E. coli SK 12140, 25 µg/mL (≈ 48.2 µM); in [1], 50 µg/mL (≈ 96.4 µM); in the experiment with Kleb. pneumo. SK 1200 it was 50 µg/mL (≈ 96.4 µM); with Kleb. pneumo. SK 4200, 25 µg/mL (≈ 48.2 µM); with Proteus Morgani 179, above 200 µg/mL. Also, the MIC in the experiment on S. aureus HH 127 is 6 µg/mL (≈ 11.6 µM); in the experiment on S. aureus SK 23390, 6 µg/mL (≈ 11.6 µM); with S. villaluz, 100 µg/mL (≈ 193 µM); against Salmonella ATCC 12176, 13 µg/mL (≈ 25.1 µM); with Serra. marc. ATCC 13880, above 200 µg/mL; against Shigella HH 117, 13 µg/mL (≈ 25.1 µM). The same molecule came in with an MIC against Strep. faecalis HH 34358 of 100 µg/mL (≈ 193 µM).
`CCOC(=O)Cc1nc(SCC2=C(C(=O)O)N3C(=O)C(NC(=O)[C@H](N)c4ccccc4)[C@H]3SC2)n[nH]1` (stereo partly drawn) [III, 7-(D-α-Aminophenylacetamido)-3-(5-carbethoxymethyl-1,2,4-triazol-3-ylthiomethyl)-3-cephem-4-carboxylic acid]: the minimum inhibitory concentration (MIC) against E. coli HH 33779 was 50 µg/mL (≈ 93.9 µM); in the experiment on E. coli SK 12140, 50 µg/mL (≈ 93.9 µM); in experiment [1], 100 µg/mL (≈ 188 µM); with Kleb. pneumo. SK 1200, 25 µg/mL (≈ 46.9 µM); with Kleb. pneumo. SK 4200, 25 µg/mL (≈ 46.9 µM); with Proteus Morgani 179, above 200 µg/mL. Besides, the minimum inhibitory concentration (MIC) with S. aureus HH 127 was 6 µg/mL (≈ 11.3 µM); in the experiment with S. aureus SK 23390 it was 6 µg/mL (≈ 11.3 µM); in the experiment with Salmonella ATCC 12176, 25 µg/mL (≈ 46.9 µM); against Serra. marc. ATCC 13880, above 200 µg/mL; in the experiment with Shigella HH 117, 13 µg/mL (≈ 24.4 µM); with Strep. faecalis HH 34358 it was 100 µg/mL (≈ 188 µM). In addition, the ED50 in the experiment on E. coli 12140 (setting [2]) is 78 mg/kg; in the experiment with Kleb. pneumo. 4200 (po, Kleb. pneumo. 4200, p.o.), 50 mg/kg; with Kleb. pneumo. 4200 (sc, Kleb. pneumo. 4200, s.c.), below 3 mg/kg. The molecule further came in with an ED50 in vivo with Kleb. pneumo. 4200 (Kleb. pneumo. 4200, s.c.) of 3 mg/kg.
`NC(=O)c1nn[nH]c1SCC1=C(C(=O)O)N2C(=O)C(NC(=O)[C@H](N)c3ccc(O)cc3)[C@H]2SC1` (stereo partly drawn) [IV, 7-(D-α-Amino-4-hydroxyphenylacetamido)-3-(4-carbamoyl-1,2,3-triazol-5-ylthiomethyl)-3-cephem-4-carboxylic acid]: the MIC in the experiment on E. coli HH 33779 was 6 µg/mL (≈ 11.9 µM); in the experiment with E. coli SK 12140, 6 µg/mL (≈ 11.9 µM); in [1] it was 50 µg/mL (≈ 98.9 µM); with Kleb. pneumo. SK 1200 it was 1.6 µg/mL (≈ 3.16 µM); in the experiment on Kleb. pneumo. SK 4200, 6 µg/mL (≈ 11.9 µM); against Proteus Morgani 179, above 200 µg/mL. The minimum inhibitory concentration (MIC) is 3 µg/mL (≈ 5.93 µM) in the experiment with S. aureus HH 127; 3 µg/mL (≈ 5.93 µM) with S. aureus SK 23390; 1.6 µg/mL (≈ 3.16 µM) in the experiment with Salmonella ATCC 12176; above 200 µg/mL against Serra. marc. ATCC 13880; 1.6 µg/mL (≈ 3.16 µM) against Shigella HH 117; 25 µg/mL (≈ 49.5 µM) in the experiment on Strep. faecalis HH 34358. Besides, the ED50 in the experiment with E. coli 12140 (setting [2]) is 35 mg/kg; with E. coli 12140 (setting [3]), 5.2 mg/kg; with Kleb. pneumo. 4200 (po, Kleb. pneumo. 4200, p.o.) it was 8.2 mg/kg; in the experiment on Kleb. pneumo. 4200 (sc, Kleb. pneumo. 4200, s.c.) it was below 3 mg/kg.
